Assay results from patent US20080275248A1, “NOVEL 4BETA-AMINO PODOP[…] AS POTENTIAL ANTICANCER AGENTS AND A PROCESS FOR THE PREPARATION THEREOF” (priority 2007, published 2008).
In brackets after ≈: the same amount, converted by molar mass. Like-named read-outs stand apart in the source and are kept apart here.

Assays:
Assay type in all cases: cell-based, human
HT1080 = experiment: SRB cytotoxicity assay, oral HT1080; details: for IC50: Homo sapiens, read-out: Activity status in terms of IC50 values, Oral HT1080
Description: (§1) Single cell suspension of the tumor cells grown in tissue culture were made, cells counted and cell count adjusted to 1×10 ^5 to 5×10^5 cells/ml. Ninety six (96) well plates were seeded with this cell suspension, each well receiving 100 μl of it. The plate was then be incubated at 37° C. temperature in CO2 incubator for 24 hours. Drugs were added at appropriate concentrations after 24-hour incubation followed by further incubation for 48 hours. Experiment was terminated by gently layering the cells in the wells with 30% TCA and plates were kept in refrigerator for 1 hour following which they were washed thoroughly with tap water, dried attained with 0.4% SRB in 1% acetic aid and finally, the bound SRB eluted with 10 mM tris. Absorbance was read at 540 nm, in the microtitre-plate reader. Optical density of drug-treated cells was compared with that of control cells and cell inhibition was calculated as percent values. Each compound was tested at 10, 20, 40 and 80 μg/ml in triplicate on human malignant cell lines.

SiHa = experiment: SRB cytotoxicity assay, cervix SiHa; details: for IC50: Homo sapiens, read-out: Activity status in terms of IC50 values, Cervix SiHa
Description: as §1

Colo205 = experiment: SRB cytotoxicity assay, colon Colo205; details: for IC50: Homo sapiens, read-out: Activity status in terms of IC50 values, Colon Colo205
Description: as §1

DWD = experiment: SRB cytotoxicity assay, oral DWD; details: for IC50: Homo sapiens, read-out: Activity status in terms of IC50 values, Oral DWD
Description: as §1

PC3 = experiment: SRB cytotoxicity assay, prostate PC3; details: for IC50: Homo sapiens, read-out: Activity status in terms of IC50 values, Prostate PC3
Description: as §1

Zr-75-1 = experiment: SRB cytotoxicity assay, breast Zr-75-1; details: for IC50: Homo sapiens, read-out: Activity status in terms of IC50 values, Breast Zr-75-1
Description: as §1

MCF7 = experiment: SRB cytotoxicity assay, breast MCF7; details: for IC50: Homo sapiens, read-out: Activity status in terms of IC50 values, Breast MCF7
Description: as §1

DU145 = experiment: SRB cytotoxicity assay, prostate DU145; details: for IC50: Homo sapiens, read-out: Activity status in terms of IC50 values, Prostate DU145
Description: as §1

Hop62 = experiment: SRB cytotoxicity assay, lung Hop62; details: for IC50: Homo sapiens, read-out: Activity status in terms of IC50 values, Lung Hop62
Description: as §1

[1] = HT1080 oral cancer cells, SRB assay, 48 hours drug incubation
[2] = SiHa cervix cancer cells, SRB assay, 48 hours drug incubation
[3] = Colo205 colon cancer cells, SRB assay, 48 hours drug incubation
[4] = DWD oral cancer cells, SRB assay, 48 hours drug incubation
[5] = PC3 prostate cancer cells, SRB assay, 48 hours drug incubation
[6] = Zr-75-1 breast cancer cells, SRB assay, 48 hours drug incubation
[7] = MCF7 breast cancer cells, SRB assay, 48 hours drug incubation
[8] = DU145 prostate cancer cells, SRB assay, 48 hours drug incubation
[9] = Hop62 lung cancer cells, SRB assay, 48 hours drug incubation

SMILES	Activity status in terms of IC50 values, Oral HT1080 (HT1080; [1]) [µg/mL]	Activity status in terms of IC50 values, Cervix SiHa (SiHa; [2]) [µg/mL]	Activity status in terms of IC50 values, Colon Colo205 (Colo205; [3]) [µg/mL]	Activity status in terms of IC50 values, Oral DWD (DWD; [4]) [µg/mL]	Activity status in terms of IC50 values, Prostate PC3 (PC3; [5]) [µg/mL]	Activity status in terms of IC50 values, Breast Zr-75-1 (Zr-75-1; [6]) [µg/mL]	Activity status in terms of IC50 values, Breast MCF7 (MCF7; [7]) [µg/mL]	Activity status in terms of IC50 values, Prostate DU145 (DU145; [8]) [µg/mL]	Activity status in terms of IC50 values, Lung Hop62 (Hop62; [9]) [µg/mL]	also measured
COc1cc(C2c3cc4c(cc3C(Nc3ccc(-c5nc6ccccc6s5)c(Cl)c3)C3COC(=O)C23)OCO4)cc(OC)c1O (stereo not drawn) [Compound 4d, 4′-O-Demethyl-4β-[4″-(1″,3″-benzothiazole-2″-yl)-3″-chloroanilino]-4-desoxypodophyllotoxin]	9	>80	7	7	>80	>80	>80	>80	60	
COc1cc(C2c3cc4c(cc3C(Nc3ccc(-c5nc6ccccc6s5)cc3)C3COC(=O)C23)OCO4)cc(OC)c1O (stereo not drawn) [Compound 4b, 4′-O-Demethyl-4β-[4″-(1″,3″-benzothiazole-2″-yl)anilino]-4-desoxypodophyllotoxin]	>80	>80	8	6	>80	>80	>80	13	8	
COc1cc(C2c3cc4c(cc3C(Nc3ccc(-c5nc6ccc(F)cc6s5)cc3)C3COC(=O)C23)OCO4)cc(OC)c1O (stereo not drawn) [Compound 4h, 4′-O-Demethyl-4β-[4″-(6″-fluoro-1″,3″-benzothiazole-2″-yl)anilino]-4-desoxypodophyllotoxin]	>80	>80	8	9	>80	>80	>80	>80	10	
COc1cc(C2c3cc4c(cc3C(Nc3ccc(-c5nc6ccc(F)cc6s5)cc3)C3COC(=O)C23)OCO4)cc(OC)c1OC (stereo not drawn) [Compound 4g, 4β-[4″-(6″-Fluoro-1″,3″-benzothiazole-2″-yl)anilino]-4-desoxypodophyllotoxin]	9	>80	7	5	>80	>80	>80	>80	30	
COc1cc([C@@H]2c3cc4c(cc3[C@H](O)[C@H]3COC(=O)[C@H]23)OCO4)cc(OC)c1OC [Compound 1, Podophyllotoxin, reference compound]										IC50 (HT1080; HT-1080, 48 h): 8 µg/mL (≈ 19.3 µM); IC50 (SiHa; SiHa, 48 h): 23 µg/mL (≈ 55.5 µM); IC50 (Colo205; COLO 205, 48 h): 5 µg/mL (≈ 12.1 µM); IC50 (DWD; DWD, 48 h): 6 µg/mL (≈ 14.5 µM); IC50 (PC3; PC-3, 48 h): 8 µg/mL (≈ 19.3 µM); IC50 (Zr-75-1; ZR-75-1, 48 h): 7 µg/mL (≈ 16.9 µM); IC50 (MCF7; MCF7, 48 h): 3 µg/mL (≈ 7.24 µM); IC50 (DU145; DU-145, 48 h): 2 µg/mL (≈ 4.83 µM); IC50 (Hop62; HOP-62, 48 h): 13 µg/mL (≈ 31.4 µM)
COc1cc(C2c3cc4c(cc3C(Nc3ccc(-c5nc6ccccc6s5)cc3)C3COC(=O)C23)OCO4)cc(OC)c1OC (stereo not drawn) [Compound 4a, 4β-[4″-(1″,3″-benzothiazole-2″-yl)anilino]-4-desoxypodophyllotoxin]	8	>80	8	22	>80	>80	>80	>80	>80	
COc1cc(C2c3cc4c(cc3C(Nc3ccc(-c5nc6ccccc6s5)c(Cl)c3)C3COC(=O)C23)OCO4)cc(OC)c1OC (stereo not drawn) [Compound 4c, 4β-[4″-(1″,3″-Benzothiazole-2″-yl)-3″-chloroanilino]-4-desoxypodophyllotoxin]	9	>80	7	5	>80	>80	>80	>80	15	
COc1cccc2c1C(=O)c1c(O)c3c(c(O)c1C2=O)C[C@@](O)(C(=O)CO)C[C@@H]3O[C@H]1C[C@H](N)[C@H](O)[C@H](C)O1 [ADR, Adriamycin, reference compound]										IC50 (HT1080; HT-1080, HT1080 oral cancer cells, SRB assay, 48 hours drug incubation): 4 µg/mL (≈ 7.36 µM); IC50 (SiHa; [2]): 5 µg/mL (≈ 9.2 µM); IC50 (Colo205; COLO 205, Colo205 colon cancer cells, SRB assay, 48 hours drug incubation): 5 µg/mL (≈ 9.2 µM); IC50 (DWD; [4]): 2 µg/mL (≈ 3.68 µM); IC50 (PC3; PC-3, PC3 prostate cancer cells, SRB assay, 48 hours drug incubation): 5 µg/mL (≈ 9.2 µM); IC50 (Zr-75-1; [6]): 5 µg/mL (≈ 9.2 µM); IC50 (MCF7; [7]): 5 µg/mL (≈ 9.2 µM); IC50 (DU145; DU-145, DU145 prostate cancer cells, SRB assay, 48 hours drug incubation): 6 µg/mL (≈ 11 µM); IC50 (Hop62; HOP-62, Hop62 lung cancer cells, SRB assay, 48 hours drug incubation): 5 µg/mL (≈ 9.2 µM)
